# HELM strings list units from the 5' end as sugar, base in round brackets, then linkage (d deoxyribose, r ribose, m 2'-O-methyl, p phosphodiester). Strings are as the collection lists them; they lack the last nucleoside at the 3' end of the tested compound. [moe] = 2'-O-(2-methoxyethyl) (MOE); [sp] = phosphorothioate linkage; [m5C] = 5-methylcytosine
# Target: C9ORF72
# Test: mouse, dose not given
# Conditions: ASO
row,Substance,3 h FOB score [score 0-7]
1,RNA1{[moe](G)[sp].[moe]([m5C])p.[moe]([m5C])p.[moe]([m5C])[sp].d([m5C])[sp].d(T)[sp].d(A)[sp].d(G)[sp].d([m5C])[sp].d(G)[sp].d([m5C])[sp].d(G)[sp].[moe]([m5C])p.[moe](G)p.[moe](A)p.[moe]([m5C])[sp].[moe](T)}$$$$ (last 3' nucleoside missing),1.5
2,RNA1{[moe](G)[sp].[moe]([m5C])p.[moe]([m5C])p.[moe]([m5C])p.[moe]([m5C])p.[moe](T)[sp].d(A)[sp].d(G)[sp].d([m5C])[sp].d(G)[sp].d([m5C])[sp].d(G)[sp].d([m5C])[sp].d(G)[sp].[moe](A)p.[moe]([m5C])[sp].[moe](T)}$$$$ (last 3' nucleoside missing),1
3,RNA1{[moe](G)[sp].[moe]([m5C])p.[moe]([m5C])p.[moe]([m5C])p.[moe]([m5C])p.[moe](T)p.d(A)[sp].d(G)[sp].d([m5C])[sp].d(G)[sp].d([m5C])[sp].d(G)[sp].d([m5C])[sp].d(G)[sp].d(A)[sp].d([m5C])[sp].[moe](T)p.[moe]([m5C])[sp].[moe]([m5C])}$$$$ (last 3' nucleoside missing),0
4,RNA1{[moe](G)[sp].[moe]([m5C])p.[moe]([m5C])p.[moe]([m5C])p.d([m5C])[sp].d(T)[sp].d(A)[sp].d(G)[sp].d([m5C])[sp].d(G)[sp].d([m5C])[sp].d(G)[sp].d([m5C])[sp].d(G)[sp].[moe](A)p.[moe]([m5C])p.[moe](T)p.[moe]([m5C])[sp].[moe]([m5C])}$$$$ (last 3' nucleoside missing),1.25
5,RNA1{[moe](G)[sp].[moe]([m5C])p.[moe]([m5C])p.d(T)[sp].d(T)[sp].d(A)[sp].d([m5C])[sp].d(T)[sp].d([m5C])[sp].d(T)[sp].d(A)[sp].d(G)[sp].d(G)[sp].[moe](A)p.[moe]([m5C])p.[moe]([m5C])p.[moe](A)p.[moe](A)[sp].[moe](G)}$$$$ (last 3' nucleoside missing),2
6,RNA1{[moe](T)[sp].[moe](A)[sp].[moe]([m5C])[sp].[moe](A)[sp].[moe](G)[sp].d(G)[sp].d([m5C])[sp].d(T)[sp].d(G)[sp].d([m5C])[sp].d(G)[sp].d(G)[sp].d(T)[sp].d(T)[sp].d(G)[sp].[moe](T)[sp].[moe](T)[sp].[moe](T)[sp].[moe]([m5C])}$$$$ (last 3' nucleoside missing),7
7,RNA1{[moe](T)[sp].[moe](G)p.[moe](G)p.[moe](T)[sp].d(T)[sp].d(A)[sp].d(A)[sp].d(T)[sp].d([m5C])[sp].d(T)[sp].d(T)[sp].d(T)[sp].[moe](A)p.[moe](T)p.[moe]([m5C])p.[moe](A)[sp].[moe](G)}$$$$ (last 3' nucleoside missing),3.25
8,RNA1{[moe](T)[sp].[moe](G)p.[moe](G)p.[moe](T)p.[moe](T)p.[moe](A)[sp].d(A)[sp].d(T)[sp].d([m5C])[sp].d(T)[sp].d(T)[sp].d(T)[sp].d(A)[sp].d(T)[sp].[moe]([m5C])p.[moe](A)[sp].[moe](G)}$$$$ (last 3' nucleoside missing),6.25
9,RNA1{[moe](T)[sp].[moe](G)p.[moe](G)p.[moe](T)p.[moe](T)p.[moe](A)p.[moe](A)p.d(T)[sp].d([m5C])[sp].d(T)[sp].d(T)[sp].d(T)[sp].d(A)[sp].d(T)[sp].d([m5C])[sp].d(A)[sp].d(G)[sp].[moe](G)[sp].[moe](T)}$$$$ (last 3' nucleoside missing),3.75
10,RNA1{[moe](T)[sp].[moe](G)p.[moe](G)p.[moe](T)p.[moe](T)p.[moe](A)p.d(A)[sp].d(T)[sp].d([m5C])[sp].d(T)[sp].d(T)[sp].d(T)[sp].d(A)[sp].d(T)[sp].d([m5C])[sp].d(A)[sp].[moe](G)p.[moe](G)[sp].[moe](T)}$$$$ (last 3' nucleoside missing),1
